Data from US8808760B2, “Extract from palm leaves and a method for producing the same” (Universiti Putra Malaysia, priority 2007, dated 2014).

What was measured:
[1] = system: SHR (spontaneous/genetically hypertensive animals); experiment: Erythrocyte antioxidant enzymes (SOD, GSH-Px, CAT), SHR; format: in vivo, rats
From the text: SOD, GSH-Px, and CAT is the first line of antioxidative enzyme defense against oxidative stress, converting reactive oxygen to hydrogen peroxide and water. SOD, GSH-Px, and CAT […] activity indicate […] oxidative stress in hypertensive animals supplemented with oil palm leaves extract.

[2] = system: SHR (spontaneous/genetically hypertensive animals); experiment: Organ antioxidant enzymes (kidney, heart, brain), SHR; format: in vivo, rats
From the text: SOD, GSH-Px, and CAT is the first line of antioxidative enzyme defense against oxidative stress, converting reactive oxygen to hydrogen peroxide and water.

[3] = system: L-NAME induced hypertensive rats; experiment: Morphology (body, kidney, heart weight), L-NAME rats; format: in vivo; conditions: mean ± SEM
From the text: (§1) The organ protective properties of the palm leaves extract and palm leaves functional ingredients on heart, and kidneys are shown in the morphology Table 4 below. […] Kidney/BW were similar in all groups. […] However, in L-NAME+captopril rats had lower Heart/BW ratio versus L-NAME.

[4] = system: SHR (spontaneously hypertensive rats); experiment: Serum nitric oxide, SHR; format: in vivo; set-up: unit not given here
[5] = system: SHR (spontaneously/genetically hypertensive rats); experiment: Morphology (body, kidney, heart weight), SHR; format: in vivo; conditions: mean ± SEM
[6] = system: L-NAME rats; experiment: Serum nitric oxide, L-NAME rats; format: in vivo; set-up: unit not given here
[7] = system: normotensive animals; experiment: Erythrocyte antioxidant enzymes (SOD, GSH-Px, CAT), normotensive animals; format: in vivo, rats
[8] = system: normotensive animals; experiment: Morphology (body, kidney, heart weight), normotensive rats; format: in vivo; conditions: mean ± SEM
From the text: as §1

[9] = system: normotensive rats; experiment: Serum nitric oxide, normotensive rats; format: in vivo; set-up: unit not given here

Structure (SMILES): C[C@H](CS)C(=O)N1CCC[C@H]1C(=O)O [Captopril, captopril]
- Erythrocyte Catalase ([1]; Week 0): 0.019 ± 0.0007 k/ml
- Erythrocyte CuZn-SOD ([1]; Week 0): 0.019 ± 0.0012 U/ml
- Erythrocyte Glutathione Peroxidase ([1]; Week 0): 31.47 ± 0.94
- Erythrocyte Catalase ([1]; Week 6): 0.017 ± 0.0003 k/ml
- Erythrocyte CuZn-SOD ([1]; Week 6): 0.009 ± 0.0012 U/ml
- Erythrocyte Glutathione Peroxidase ([1]; Week 6): 12.69 ± 2.47
- Erythrocyte Catalase ([1]; Week 8): 0.017 ± 0.0004 k/ml
- Erythrocyte CuZn-SOD ([1]; Week 8): 0.011 ± 0.0004 U/ml
- Erythrocyte Glutathione Peroxidase ([1]; Week 8): 28.77 ± 2.05
- Erythrocyte Catalase ([1]; Week 12): 0.016 ± 0.0003 k/ml
- Erythrocyte CuZn-SOD ([1]; Week 12): 0.012 ± 0.0007 U/ml
- Erythrocyte Glutathione Peroxidase ([1]; Week 12): 34.63 ± 2.2
- Organ Catalase ([2]; Heart): 4.08 ± 0.458 k/mg protein
- Organ CuZn-SOD ([2]; Heart): 0.78 ± 0.301 U/mg protein
- Organ GPx ([2]; Heart): 3.20 ± 0.23 U/mg protein
- Organ Catalase ([2]; Kidney): 25.96 ± 2.04 k/mg protein
- Organ CuZn-SOD ([2]; Kidney): 0.80 ± 0.199 U/mg protein
- Organ GPx ([2]; Kidney): 2.02 ± 0.184 U/mg protein
- Organ Catalase ([2]; brain): 1.96 ± 0.27 k/mg protein
- Organ CuZn-SOD ([2]; brain): 1.26 ± 0.097 U/mg protein
- Organ GPx ([2]; brain): 2.87 ± 0.360 U/mg protein
- Final body weight [3]: 296.4 ± 5.97 g
- Heart [3]: 0.91 ± 0.07 g
- Heart/Body weight [3]: 3.096 ± 0.0003 mg/g
- Kidney [3]: 2.017 ± 0.07 g
- Kidney/Body Weight [3]: 6.822 ± 0.0002 mg/g
- nitric oxide values measured in serum ([4]; Week 0): 0.230 ± 0.02
- nitric oxide values measured in serum ([4]; Week 6): 0.425 ± 0.05
- nitric oxide values measured in serum ([4]; Week 8): 0.438 ± 0.08
- nitric oxide values measured in serum ([4]; Week 12): 0.572 ± 0.02 +
- Final body weight [5]: 259.09 ± 5.53 g
- Heart [5]: 1.16 ± 0.07 g
- Heart/Body weight [5]: 4.533 ± 0.0002 mg/g
- Kidney [5]: 2.074 ± 0.09 g
- Kidney/Body Weight [5]: 8.139 ± 0.0004 mg/g
- nitric oxide values measured in serum ([6]; Week 0): 0.402 ± 0.008
- nitric oxide values measured in serum ([6]; Week 6): 0.585 ± 0.082
- nitric oxide values measured in serum ([6]; Week 8): 0.742 ± 0.123
- nitric oxide values measured in serum ([6]; Week 12): 0.44 ± 0.072
- Erythrocyte Catalase ([7]; Week 0): 0.014 ± 0.0006 k/ml
- Erythrocyte CuZn-SOD ([7]; Week 0): 0.014 ± 0.0010 U/ml
- Erythrocyte Glutathione Peroxidase ([7]; Week 0): 16.5 ± 0.76
- Erythrocyte Catalase ([7]; Week 6): 0.013 ± 0.0003 k/ml
- Erythrocyte CuZn-SOD ([7]; Week 6): 0.022 ± 0.0006 U/ml
- Erythrocyte Glutathione Peroxidase ([7]; Week 6): 21.1 ± 5.05
- Erythrocyte Catalase ([7]; Week 8): 0.014 ± 0.0005 k/ml
- Erythrocyte CuZn-SOD ([7]; Week 8): 0.015 ± 0.0019 U/ml
- Erythrocyte Glutathione Peroxidase ([7]; Week 8): 9.3 ± 1.24
- Erythrocyte Catalase ([7]; Week 12): 0.013 ± 0.0008 k/ml
- Erythrocyte CuZn-SOD ([7]; Week 12): 0.018 ± 0.0006 U/ml
- Erythrocyte Glutathione Peroxidase ([7]; Week 12): 26.2 ± 6.90
- Final body weight [8]: 291.4 ± 8.56 g
- Heart [8]: 1.02 ± 0.04 g
- Heart/Body weight [8]: 3.558 ± 0.0002 mg/g
- Kidney [8]: 2.140 ± 0.07 g
- Kidney/Body Weight [8]: 7.370 ± 0.0003 mg/g
- nitric oxide values measured in serum ([9]; Week 0): 0.381 ± 0.023
- nitric oxide values measured in serum ([9]; Week 6): 0.573 ± 0.024
- nitric oxide values measured in serum ([9]; Week 8): 0.455 ± 0.060
- nitric oxide values measured in serum ([9]; Week 12): 0.525 ± 0.071
